Like-named read-outs stand apart in the source and are kept apart here.
How the values were obtained:
[1] = biological target: T1, Polymorphum gilvum pgLacBP10, YP_004304976.1, SEQ ID NO: 10 (expressed form SEQ ID NO: 24) (Polymorphum gilvum, UniProt F2IY60); assay: Lactate binding by thermal stability shift; parameters: key to appKd (lactate) / trueKd (lactate): nb: no binding
T1 sequence (F2IY60 with tags, fused parts or gaps): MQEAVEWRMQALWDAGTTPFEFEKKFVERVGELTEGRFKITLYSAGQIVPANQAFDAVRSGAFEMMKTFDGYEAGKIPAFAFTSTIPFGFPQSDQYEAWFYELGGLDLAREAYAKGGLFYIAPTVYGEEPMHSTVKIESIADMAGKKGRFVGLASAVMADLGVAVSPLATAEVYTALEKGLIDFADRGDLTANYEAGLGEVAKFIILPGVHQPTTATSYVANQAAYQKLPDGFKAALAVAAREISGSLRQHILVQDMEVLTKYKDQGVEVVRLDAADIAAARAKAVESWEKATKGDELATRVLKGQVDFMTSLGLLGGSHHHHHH
Text: These experiments comprise four successive steps: • 1. Synthetic gene construction. The amino acid sequence of the homology leads are back translated into DNA sequences. These are optimized for directing heterologous cytoplasmic expression of the protein homologues in E. coli, using either the OrfOpt or OrfMorph programs. These programs predict mRNA sequences that direct high-level protein expression in E. coli. The predicted gene sequences are assembled de novo from synthetic oligonucleotides. • 2. Heterologous protein expression of the homologues in E. coli. Plasmids carrying the synthetic expression constructs (see above) were transformed into KRX competent cells (Promega). Protein production was induced in bacterial cultures of these cultures. • 3. Purification of successfully expressed protein using immobilized metal affinity chromatography. • 4.
The thermal stability of purified LacBP candidate proteins was determined by measuring the temperature-dependence of the fluorescence signal of an extrinsically added dye, SYPRO, using a Roche LightCycler (Layton and Hellinga, 2010, Biochemistry, 49, 10831-41). The total fluorescence intensity, S, is given by S=βFfF+βUfU 11 where fF and fU are the fractions of protein in the folded and unfolded states, respectively, and βF and βUthe fluorescence baselines of these two states. To get the fractions of the two states, we have
To obtain the temperature dependence of the binding reaction, the Kd values of all the individually determined isotherms were fit the Gibbs-Hemholtz equation (Layton and Hellinga, 2010, Biochemistry, 49, 10831-41): […]

[2] = test system: Anaeromyxobacter dehalogenans adLacBP9 variant F191C, SEQ ID NO: 44, Acrylodan conjugate; assay: Fluorescence titration of conjugate; assay type: binding; parameters: key: nb: no binding
Description: (§1) 12-, 24-, or 48-point logarithmic titration series were prepared on a Tecan Freedom liquid-handling robot, using an in-house program, ‘TitrationPlate’, that compiles an abstract description of a multi-component titration series into machine instructions for operating the robot. Temperature-dependent fluorescence emission intensities of 20 μL aliquots, each containing 10 μM protein, were measured in 384-well microtiter plates in a LightCycler 480 II (Roche) using excitation and emission wavelengths available for this instrument that most closely matched the optical characteristics of the fluorescent conjugate. Temperatures were advanced in 1K steps. At each temperature, data was collected at 1-second intervals for 60 seconds at which point the signal had relaxed to a steady value associated with the new temperature. […] The in-house program ‘TitrationMeltPlate’ was used to convert these observations into time-independent datasets that record fluorescence as a function of temperature for each well and associate wells with their concentration of titrant and additive. Management tools were developed to maintain a database of titrations and their analyses.
(§2) Ligand- and wavelength-dependent emission intensities were recorded on a Nanodrop3300 (Thermo Scientific) at room temperature. Using the LED closest to the optimal excitation wavelength of the fluorophore (UV, 365 nm; blue, 470 nm; ‘white’, 460-550 nm).
(§3) Monochromatic emission intensities Iλ (these intensities correspond to a bandpass intensity, recorded either with a physical filter in the case of the Roche LightCycler, or by integrating in the interval λ−δ, λ+δ in the case of an emission spectrum), were fit to Iλ=^apoβλ(1−ytrue)+^satβλytrue 1 where ^apoβλ and ^satβλ are the fluorescence baselines associated with the ligand-free and ligand-bound states of the protein, respectively, and ytrue the fractional saturation of the protein (Layton and Hellinga, 2010, Biochemistry, 49, 10831-41). Baseline functions can be constant, linear, or a second-order polynomial.

[3] = test system: Anaeromyxobacter dehalogenans adLacBP9 variant F191C, SEQ ID NO: 44, Badan conjugate; assay: Fluorescence titration of conjugate; assay type: binding; parameters: key: nb: no binding
Description: as §1, §2, §3

[4] = biological target: T2, Rhodobacter sphaeroides rsLacBP12 variant F191C, SEQ ID NO: 46, Acrylodan conjugate (Cereibacter sphaeroides, UniProt Q3IWV8, F228C); assay type: binding; parameters: key: nb: no binding
T2 construct: Acrylodan on Cys191
T2 sequence (Q3IWV8 entry or part of it F228C): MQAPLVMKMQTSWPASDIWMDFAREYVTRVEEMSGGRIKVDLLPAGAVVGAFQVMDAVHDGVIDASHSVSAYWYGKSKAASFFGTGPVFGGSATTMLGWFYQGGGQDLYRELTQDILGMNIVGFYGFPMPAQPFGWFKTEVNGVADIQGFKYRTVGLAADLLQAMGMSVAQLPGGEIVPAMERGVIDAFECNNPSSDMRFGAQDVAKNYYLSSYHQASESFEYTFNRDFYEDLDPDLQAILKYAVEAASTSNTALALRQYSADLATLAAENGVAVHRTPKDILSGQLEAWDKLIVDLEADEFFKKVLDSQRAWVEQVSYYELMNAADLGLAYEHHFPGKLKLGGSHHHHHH
Description: as §1, §2, §3

[5] = biological target: T3, Rhodobacter sphaeroides rsLacBP12 variant F191C, SEQ ID NO: 46, Badan conjugate (Cereibacter sphaeroides, UniProt Q3IWV8, F228C); assay type: binding; parameters: key: nb: no binding
T3 construct: Badan on Cys191
T3 sequence (Q3IWV8 entry or part of it F228C): as above
Description: as §1, §2, §3

[6] = biological target: T4, Thermanaerovibrio acidaminovorans taLacBP14 variant W186C, SEQ ID NO: 48, Acrylodan conjugate (Thermanaerovibrio acidaminovorans, UniProt D1B6P5, C271A/C333A/W212C); assay type: binding; parameters: key: nb: no binding
T4 construct: Acrylodan on Cys186
T4 sequence (D1B6P5 entry or part of it W212C/C271A/C333A): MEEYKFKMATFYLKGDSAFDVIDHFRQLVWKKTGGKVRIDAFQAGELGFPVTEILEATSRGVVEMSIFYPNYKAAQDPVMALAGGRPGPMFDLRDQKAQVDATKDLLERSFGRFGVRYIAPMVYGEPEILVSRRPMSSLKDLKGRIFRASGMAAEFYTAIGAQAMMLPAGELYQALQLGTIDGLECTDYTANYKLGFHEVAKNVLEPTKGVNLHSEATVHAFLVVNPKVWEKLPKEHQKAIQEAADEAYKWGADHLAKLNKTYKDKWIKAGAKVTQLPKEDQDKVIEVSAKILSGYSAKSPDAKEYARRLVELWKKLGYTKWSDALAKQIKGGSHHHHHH
Description: as §1, §2, §3

[7] = biological target: T5, Pseudomonas stuztzeri psLacBP11 variant W195C, SEQ ID NO: 45, Badan conjugate (Stutzerimonas nitrititolerans, UniProt A0ABX9V4I2, W224C); assay type: binding; parameters: key: nb: no binding
T5 construct: Badan on Cys195
T5 sequence (A0ABX9V4I2 entry or part of it W224C): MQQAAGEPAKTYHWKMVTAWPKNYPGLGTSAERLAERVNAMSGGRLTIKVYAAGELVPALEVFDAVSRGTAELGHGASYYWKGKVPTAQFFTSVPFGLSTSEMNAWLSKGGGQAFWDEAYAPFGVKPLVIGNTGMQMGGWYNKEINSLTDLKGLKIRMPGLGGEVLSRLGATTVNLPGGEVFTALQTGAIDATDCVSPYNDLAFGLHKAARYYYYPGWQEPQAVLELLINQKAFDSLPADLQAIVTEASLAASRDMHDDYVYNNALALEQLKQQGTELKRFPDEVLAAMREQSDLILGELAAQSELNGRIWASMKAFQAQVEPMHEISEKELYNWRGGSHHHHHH
Description: as §1, §2, §3

[8] = biological target: T6, Thermanaerovibrio acidaminovorans taLacBP14 variant W186C, SEQ ID NO: 48, Badan conjugate (Thermanaerovibrio acidaminovorans, UniProt D1B6P5, C271A/C333A/W212C); assay type: binding; parameters: key: nb: no binding; conditions: λ1 515, λ2 491 nm
T6 construct: Badan on Cys186
T6 sequence (D1B6P5 entry or part of it W212C/C271A/C333A): as the sequence (D1B6P5 entry or part of it W212C/C271A/C333A) above
Description: as §1, §2, §3

[9] = biological target: Marinobacter sp. msLacBP6 variant 187C, D220E, SEQ ID NO: 56, Acrylodan conjugate; assay: Fluorescence titration of conjugate (affinity tuning); assay type: binding; conditions: λ1 483, λ2 510 nm
[10] = Roche LightCycler, SYPRO Orange

C[C@H](O)C(=O)O [lactate]
appKd (lactate) [1, 10]: nb^f | trueKd (lactate) [1, 10]: nb^f | Lactate Binding ([1]; thermostability vs ligand concentration, fluorescence response of labeled conjugate): weak^f,g | appKd (lactate) [2]: nb | trueKd (lactate) [2]: nb | appKd (lactate) [3]: nb | trueKd (lactate) [3]: nb | appKd (lactate) [4]: nb | trueKd (lactate) [4]: nb | appKd (lactate) [5]: nb | trueKd (lactate) [5]: nb | appKd (lactate) [6]: nb | trueKd (lactate) [6]: nb | appKd (lactate) [7]: nb | trueKd (lactate) [7]: nb | appKd (lactate) [8]: nb | trueKd (lactate) [8]: nb | Kd ([9]; read-out: appKd (lactate)): 5.1 mM | Kd ([9]; read-out: trueKd (lactate)): 4 mM
